From US20040068002A1, “4-aminobenzopyran derivatives” (priority 2001, published 2004) come the findings set out here.

Assay [1] deals with atrial effective refractory period. Description: Effects on the effective refractory period (atrial), anesthetized beagles with vagal nerve stimulation. It is filed as in vivo. Particulars: 0.3 mg/kg intravenously, from 5 min after administration, after minus before administration. How it is done: (§1) Effects on the Effective Refractory Period
(§2) Beagles were anesthetized with pentobarbital sodium and, under artificially ventilated condition, thoracotomy was conducted along the median and the pericardium was cut open to expose the heart. ECG was recorded using bipolar electrodes attached to the surface of the right atrial free wall, right atrial auricle, and right ventricular free wall. The vagal nerves were stimulated using an electric stimulation device via Nichrome wires inserted into the bilateral vagal nerves in the neck. The conditions for electric stimulation to the vagal nerves were set such that the RR intervals on ECG were prolonged by about 100 msec compared with those before the stimulation was started.
(§3) Electric current twice as strong as the threshold was used for the electric stimulation to the heart, and premature stimulation S2 was applied after giving 10 serial S1 stimulations at the basic stimulation cyclelength. […]
(§4) For evaluation of drug effects, the atrial and ventricular effective refractory periods were determined before drug administration, then each compound was administrated intravenously at the dose of 0.3 mg/kg, and the atrial and ventricular effective refractory periods were determined from 5 min after the administration. […]

The test system of assay [2] is ventricular effective refractory period. Description: Effects on the effective refractory period (ventricular), anesthetized beagles with vagal nerve stimulation. The class given is in vivo. Particulars: 0.3 mg/kg intravenously, from 5 min after administration, after minus before administration. How it is done: as §1, §2, §3, §4

As to `CCCCCN[C@H]1c2cc(NC(C)=O)c([N+](=O)[O-])cc2OC(C)(C)[C@@H]1O` (relative stereo) [Synthesis Example 1, (3R*,4S*)-6-acetylamino-3,4-dihydro-2,2-dimethyl-7-nitro-4-n-pentylamino-2H-1-benzopyran-3-ol], in assay [1], the “prolongation time in effective refractory period (msec) Atrium” value was determined as 40 ms. In addition, the “prolongation time in effective refractory period (msec) ventricle” value in assay [2] stood at 5 ms.

For `CCCCCN[C@H]1c2cc(N)c([N+](=O)[O-])cc2OC(C)(C)[C@@H]1O` (relative stereo) [Synthesis Example 9, Trans-6-amino-3,4-dihydro-2,2-dimethyl-7-nitro-4-n-pentylamino-2H-1-benzopyran-3-ol], in assay [1], the “prolongation time in effective refractory period (msec) Atrium” value is 27 ms. The “prolongation time in effective refractory period (msec) ventricle” value in assay [2] worked out at 3 ms.
